Results from patent US20230135635A1, “INHIBITORS OF ULK1/2 AND METHODS OF USING SAME” (SALK INSTITUTE FOR BIOLOGICAL STUDIES, priority 2020, published 2023).

Target: T1, recombinant human ULK1 protein (1-649) (Homo sapiens, UniProt O75385)
T1 construct: recombinant human ULK1 protein (1-649, SignalChem #U01-11G); purchased SignalChem U01-11G
T1 sequence (O75385 1-649): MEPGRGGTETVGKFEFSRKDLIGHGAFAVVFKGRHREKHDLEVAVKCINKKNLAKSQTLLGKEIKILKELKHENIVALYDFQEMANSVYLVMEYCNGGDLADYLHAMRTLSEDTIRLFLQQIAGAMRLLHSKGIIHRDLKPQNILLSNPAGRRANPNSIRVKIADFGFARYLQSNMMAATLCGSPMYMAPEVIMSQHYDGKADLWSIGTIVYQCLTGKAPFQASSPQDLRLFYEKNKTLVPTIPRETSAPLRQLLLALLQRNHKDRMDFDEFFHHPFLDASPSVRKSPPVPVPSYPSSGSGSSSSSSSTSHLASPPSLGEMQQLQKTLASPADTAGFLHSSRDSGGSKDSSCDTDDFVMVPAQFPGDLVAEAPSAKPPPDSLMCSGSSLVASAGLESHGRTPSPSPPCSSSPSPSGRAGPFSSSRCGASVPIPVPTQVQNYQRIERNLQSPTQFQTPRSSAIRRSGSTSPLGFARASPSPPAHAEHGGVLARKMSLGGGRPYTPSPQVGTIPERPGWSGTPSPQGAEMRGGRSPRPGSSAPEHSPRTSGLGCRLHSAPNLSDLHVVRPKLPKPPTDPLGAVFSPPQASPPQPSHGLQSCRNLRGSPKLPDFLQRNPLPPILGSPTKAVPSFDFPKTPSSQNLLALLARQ
Experiment: ULK1 inhibition assay (ADP Glo)
Type: biochemical
Details: Table 1; 25 uM ATP, MBP substrate, one hour
Experimental: Illustrative compounds of Formula I and related analogs are shown in Table 1 (along with their respective IC50 values for ULK1 inhibition assays). For ADP Glo assay, IC50s are represented nM, with A representing IC50<1 nM, B representing 10 nM>IC50>1 nM, and C representing IC50>10 nM. NT indicates the compound was not tested. ULK1 inhibition assays were performed in a 5 uL reaction volume containing 2 ug/mL recombinant human ULK1 protein (1-649, SignalChem #U01-11G) and 80 ug/mL myelin basic protein (MBP, Sigma-Aldrich #M1891) in the presence of 25 uM ATP (Sigma-Aldrich A7699). ULK 1 inhibition was assessed after one hour. Compounds were tested in triplicate in a 16-dose IC50 mode with 3-fold serial dilution and a starting dose of 30 uM. Staurosporine, a non-selective protein kinase inhibitor, was used in the assay as a positive control.
According to another embodiment, the present disclosure provides methods of producing the above-defined compounds. The compounds may be synthesized using any suitable techniques. Advantageously, these compounds are conveniently synthesized from readily available starting materials. Synthetic chemistry transformations and methodologies useful in synthesizing the compounds described herein are known in the art and include, for example, those described in R. Larock, Comprehensive Organic Transformations (1989); T. W. Greene and P. G. M. Wuts, Protective Groups in Organic Synthesis, 2d. Ed. (1991); L. Fieser and M. Fieser, Fieser and Fieser's Reagents for Organic Synthesis (1994); and L. Paquette, ed., Encyclopedia of Reagents for Organic Synthesis (1995).). In general, synthesis and measurements of ULK1 inhibitory activity of the compounds described herein was performed using method analogous to those previously described in PCT International Application No. PCT/US2015/046777 which is hereby incorporated by reference in its entirety.

`CNC(=O)c1ccccc1Nc1nc(Nc2ccc3c(c2)CN(Cc2ccncc2)CC3)ncc1Br` [Compound A162, 2-[5-Bromo-2-(2-pyridin-4-ylmethyl-1,2,3,4-tetrahydro-isoquinolin-7-ylamino)-pyrimidin-4-ylamino]-N-methyl-benzamide] and `CNC(=O)c1ccccc1Nc1nc(Nc2ccc3c(c2)CN(Cc2ccc(OC)cc2)CC3)ncc1Br` [Compound A158, 2-{5-Bromo-2-[2-(4-methoxy-benzyl)-1,2,3,4-tetrahydro-isoquinolin-7-ylamino]-pyrimidin-4-ylamino}-N-methyl-benzamide] cannot be ordered by IC50: > 10 nM for the first, > 10 nM for the second.

`CNC(=O)c1ccccc1Nc1nc(Nc2ccc3c(c2)CN(CCC(N)=O)CC3)ncc1Br` [Compound A166, 2-{5-Bromo-2-[2-(2-carbamoyl-ethyl)-1,2,3,4-tetrahydro-isoquinolin-7-ylamino]-pyrimidin-4-ylamino}-N-methyl-benzamide] and `CNC(=O)c1ccccc1Nc1nc(Nc2ccc3c(c2)CCN(CCC(N)=O)C3)ncc1Br` [Compound A142, 2-{5-Bromo-2-[2-(2-carbamoyl-ethyl)-1,2,3,4-tetrahydro-isoquinolin-6-ylamino]-pyrimidin-4-ylamino}-N-methyl-benzamide] cannot be ordered by IC50: > 10 nM for the first, > 10 nM for the second.

Compared with `Oc1ccc(CN2CCc3cc(Nc4ncc(C(F)(F)F)c(NC5CC5)n4)ccc3C2)cc1` [Compound A77], `FC(F)(F)c1cnc(Nc2ccc3c(c2)CN(Cc2ccccc2)CC3)nc1NC1CC1` [Compound A95] is higher in IC50: < 1 nM for the first, > 10 nM for the second. The first is the more potent here.

`CS(=O)(=O)CCN1CCc2cc(Nc3ncc(C(F)(F)F)c(NC4CC4)n3)ccc2C1` [Compound A91] and `OCCN1CCc2ccc(Nc3ncc(C(F)(F)F)c(NC4CC4)n3)cc2C1` [Compound A106] fall in the same range of IC50: 1 to 10 nM for the first, 1 to 10 nM for the second.

`N[C@H](CO)C(=O)N1CCc2cc(Nc3ncc(C(F)(F)F)c(NC4CC4)n3)ccc2C1` (stereo in doubt) [Compound A48] and `NCC(=O)N1CCc2cc(Nc3ncc(C(F)(F)F)c(NC4CC4)n3)ccc2C1` [Compound A27] cannot be ordered by IC50: < 1 nM for the first, < 1 nM for the second.

`FC(F)(F)c1cnc(Nc2ccc3c(c2)CN(C2CNC2)CC3)nc1NC1CC1` [Compound A110] and `FC(F)(F)c1cnc(Nc2ccc3c(c2)CNCC3)nc1NC1CC1` [Compound A16] cannot be ordered by IC50: < 1 nM for the first, < 1 nM for the second.

First: Cn1nccc1CN1CCc2cc(Nc3ncc(C(F)(F)F)c(NC4CC4)n3)ccc2C1 [Compound A63]
Second: FC(F)(F)c1cnc(Nc2ccc3c(c2)CN(Cc2c[nH]cn2)CC3)nc1NC1CC1 [Compound A105]
The IC50 of the first is lower: < 1 nM for the first, 1 to 10 nM for the second. The first is the more potent here.

Compared with `NS(=O)(=O)N1CCc2cc(Nc3ncc(C(F)(F)F)c(NC4CC4)n3)ccc2C1` [Compound A25], `NCC(=O)N1CCc2ccc(Nc3ncc(C(F)(F)F)c(NC4CC4)n3)cc2C1` [Compound A83] is higher in IC50: < 1 nM for the first, 1 to 10 nM for the second.

`CNC(=O)c1ccccc1Nc1nc(Nc2ccc3c(c2)CN(C(=O)[C@@H](N)CO)CC3)ncc1Br` (racemic) [Compound A154, 2-{2-[2-(2-Amino-3-hydroxy-propionyl)-1,2,3,4-tetrahydro-isoquinolin-7-ylamino]-5-bromo-pyrimidin-4-ylamino}-N-methyl-benzamide] and `CNC(=O)c1ccccc1Nc1nc(Nc2ccc3c(c2)CN(CCOC)CC3)ncc1Br` [Compound A149, 2-{5-Bromo-2-[2-(2-methoxy-ethyl)-1,2,3,4-tetrahydro-isoquinolin-7-ylamino]-pyrimidin-4-ylamino}-N-methyl-benzamide] cannot be ordered by IC50: > 10 nM for the first, > 10 nM for the second.

First: O=C(O)C[C@H](NC(=O)OCc1ccccc1)C(=O)N1CCc2cc(Nc3ncc(C(F)(F)F)c(NC4CC4)n3)ccc2C1 (racemic) [Compound A67]
Second: O=C(CN1CCOCC1)N1CCc2cc(Nc3ncc(C(F)(F)F)c(NC4CC4)n3)ccc2C1 [Compound A115]
The IC50 of the first is lower: < 1 nM for the first, 1 to 10 nM for the second. The first is the more potent here.

Going from `FC(F)(F)c1cnc(Nc2ccc3c(c2)CCN(CC2CCNC2)C3)nc1NC1CC1` (stereo not shown) [Compound A43] to `CNC(=S)Nc1cnc(Nc2ccc3c(c2)CCNC3)nc1NC1CC1` [Compound A24], the IC50 rises from < 1 nM to > 10 nM.

With `CNC(=O)c1ccccc1Oc1nc(Nc2ccc3c(c2)CCN(CCOC)C3)ncc1Cl` [Compound A124, 2-((5-chloro-2-((2-(2-methoxyethyl)-1,2,3,4-tetrahydroisoquinolin-6-yl)amino)pyrimidin-4-yl)oxy)-N-methylbenzamide] the IC50 was > 10 nM.

Same assay, conditions: Table 2

Compared with `COC(=O)c1ccccc1Oc1ncnc(Nc2cc(OC)c(OC)c(OC)c2)n1` [Compound B48], `COc1cc(Nc2ncc(Br)c(Oc3ccccc3C(=O)N(C)CCO)n2)cc(OC)c1OC` [Compound B3] is lower in IC50: > 1000 nM for the first, 100 to 1000 nM for the second. The second is the more potent here.

`COC(=O)c1ccccc1Oc1nc(Nc2ccc3[nH]ccc3c2)ncc1Br` [Compound B31] and `COC(=O)c1ccccc1Oc1nc(Nc2ccc3c(c2)OCO3)ncc1Br` [Compound B20] cannot be ordered by IC50: > 1000 nM for the first, > 1000 nM for the second.

`COC(=O)c1ccccc1Oc1nc(Nc2cccc(C(F)(F)F)c2)ncc1Br` [Compound B28] and `COC(=O)c1ccccc1Oc1nc(Nc2ccc(OC(F)(F)F)cc2)ncc1Br` [Compound B13] cannot be ordered by IC50: > 1000 nM for the first, > 1000 nM for the second.

`COc1cc(Nc2ncc(Br)c(Oc3ccccc3C(=O)N(C)CC(C)(C)O)n2)cc(OC)c1OC` [Compound B49] and `COc1cc(Nc2ncc(Br)c(Oc3ccccc3C(=O)NCCS(C)(=O)=O)n2)cc(OC)c1OC` [Compound B8] cannot be ordered by IC50: > 1000 nM for the first, > 1000 nM for the second.

`CNC(=O)c1ccccc1Oc1nc(Nc2ccc3c(c2)OCCO3)ncc1C(F)(F)F` [Compound B51, 2-((2-((2,3-Dihydrobenzo[b][1,4]dioxin-6-yl)amino)-5-(trifluoromethyl)pyrimidin-4-yl)oxy)-N-methylbenzamide] and `COc1cc(Nc2ncc(Br)c(Oc3ccccc3C(=O)N3CCN(C)CC3)n2)cc(OC)c1OC` [Compound B44] cannot be ordered by IC50: > 1000 nM for the first, > 1000 nM for the second.

Same assay, conditions: Table 3

First: COc1cccc(Nc2ncc(Br)c(Nc3ccccc3CO)n2)c1 [Compound C6]
Second: COc1ccc(Nc2ncc(Br)c(Nc3ccccc3CO)n2)cc1 [Compound C5]
The IC50 of the first is lower: < 5 nM for the first, 5 to 100 nM for the second.

First: COc1cc(Nc2ncc(Br)c(Oc3ccc(NC(=O)C4(C(=O)Nc5ccc(F)cc5)CC4)cc3F)n2)cc(OC)c1OC [Compound C28, N-(4-((5-Bromo-2-((3,4,5-trimethoxyphenyl)amino)pyrimidin-4-yl)oxy)-3-fluorophenyl)-N-(4-fluorophenyl)cyclopropane-1,1-dicarboxamide]
Second: COc1cc(Nc2ncc(Br)c(Nc3ccccc3SC)n2)cc(OC)c1OC [Compound E3]
The IC50 of the first is higher: > 100 nM for the first, 5 to 100 nM for the second. The second is the more potent here.

Compared with `C#CCN1CCN(c2ccc(Nc3ncc(Br)c(Nc4ccccc4C(=O)NC)n3)cc2)CC1` [Compound E25, 2-((5-Bromo-2-((4-(4-(prop-2-yn-1-yl)piperazin-1-yl)phenyl)amino)pyrimidin-4-yl)amino)-N-methylbenzamide], `CNC(=O)c1ccccc1Nc1nc(Nc2cccc(OC(F)F)c2)ncc1Br` [Compound E20, 2-((5-Bromo-2-((3-(difluoromethoxy)phenyl)amino)pyrimidin-4-yl)amino)-N-methylbenzamide] is higher in IC50: 5 to 100 nM for the first, > 100 nM for the second.

`NC(=O)c1ccc(Nc2ncc(Br)c(Nc3ccccc3CO)n2)cc1` [Compound C14] and `COc1cc(Nc2ncc(Br)c(Nc3ccccc3CNCC(N)=O)n2)cc(OC)c1OC` [Compound C25] fall in the same range of IC50: 5 to 100 nM for the first, 5 to 100 nM for the second.

`CC(=O)NCc1ccc(Nc2ncc(C(F)(F)F)c(NC3CC3)n2)cc1` [Compound D5] and `COc1cc(Nc2ncc(Br)c(Nc3ccccc3CN(C)C)n2)cc(OC)c1OC` [Compound C18] fall in the same range of IC50: 5 to 100 nM for the first, 5 to 100 nM for the second.
